The source of these data is publication PMC5201116, “Bioactive Flavonoids and Catechols as Hif1 and Nrf2 Protein Stabilizers - Implications for Parkinson’s Disease” (Aging and Disease, 2016).

In data set [1] the test system is HIF1 ODD-luc reporter (SH-SY5Y cell line). The data set can be described thus: HIF1 ODD-luc reporter assay. The format is cell-based. The conditions noted are these: for fold induction at 10 µM: 3 h, 3 h incubation, read-out: ODD-luc fold activation. The protocol:
(§1) SH-SY5Y cell lines stably expressing HIF1 ODD-luc or Neh2-luc reporters were grown in the DMEM/F12 supplemented with GlutaMAX (Thermo Fisher Scientific) containing 10% FBS, 100 U/ml penicillin, and 100 μg/ml streptomycin and plated into 384-well white flat-bottom plates at 7,000 cell/well in 30 µl serum and incubated overnight at 37°C, 5% CO2. The next day compounds were added to a final concentration of 10 µM and the plates were incubated for 3 hours at 37°C. Reporter activation after 3 h incubation with the studied compound was compared to that for ciclopirox (HIF1 ODD-luc reporter) or TBHQ (Neh2-luc reporter), taken as 100%. Luciferase reporter activity was measured with a SteadyGlo reagent from Promega providing stable reading for 1 h.
(§2) Cells were plated at the density of 25,000 cell per well using a WellMate multichannel dispenser from Matrix (Thermo Fisher Scientific, Waltham, MA) and grown overnight on DMEM/F12+GlutaMAX (100 µl per well). Then an inhibitor was added, and the plates were incubated for a fixed time interval; the medium was removed, cells lysed, and luciferase activity was measured on a SpectraMax M5e platereader (Molecular Devices, Sunnyvale, CA) with BrightGlo™ reagent (Promega, Madison, WI). The reporter activation was normalized to the background luminescence. The effect of 0.5 mM N-acetylcysteine (NAC) was studied by simultaneous addition of 5 µL of 10 mM stock of NAC in water and 2 µL of 50x stock solutions of a flavonoid in DMSO.
A general note: Reporter assays use an easily measured gene product as a stand-in for the process of interest.

The test system of data set [2] is HRE-luciferase reporter (HT22 hippocampal cell line). The data set can be described thus: HRE-luc reporter assay. The format is cell-based. Conditions: for fold induction at 10 µM: Mus musculus, HT-22, 3 h, read-out: HRE-luc fold activation. An excerpt:
A promoter-reporter construct that contained 68 bp of a known hypoxia and HIF-1 regulated gene, enolase, containing a wild type hypoxia response element (HRE, 5’-RCTGT-3’), is a widely used approach for screening for HIF activators of different mechanism of action. A cell-based assay with HRE-luciferase reporter system is based on transfected immortalized hippocampal cell line (HT22) and allows screening for a broad spectrum of compounds that include: activators of HIF transcription; activators of HIF binding to HRE; and effectors of HIF protein stability (PHD inhibitors, pVHL & proteasome inhibitors). The assay was performed the same way as for HIF ODD-luc reporter except the cells were plated at the density of 10,000 cell per well and incubated overnight.

For data set [3], the system named is Neh2-luc reporter (SH-SY5Y cell line). The data set can be described thus: Neh2-luc reporter assay. The format is cell-based. The conditions noted are these: for EC50 / fold induction at 10 µM: Homo sapiens, SH-SY5Y; for EC50: Neh2-luc; for fold induction at 10 µM: read-out: Neh2-luc fold activation; for effect of NAC on Neh2-luc reporter activation: simultaneous addition of 0.5 mM NAC, results not shown. The protocol: as §1, §2

Data set [4] is described as follows: Iron binding constant, calcein displacement assay. The data set is classed as physicochemical. Conditions: calcein displacement. An excerpt: Calcein displacement assay in the presence of varied concentrations of flavonoids and catechols has been used. Calcein release from its complex with iron was monitored by fluorescence as described in [26].
Data set [5] can be described thus: Non-enzymatic ferricyanide reduction rate constant. The data set is classed as physicochemical. The conditions noted are these: 1 mM ferricyanide, pH 7.0. The protocol:
The rate of ferricyanide reduction by individual flavonoids was measured spectrophotometrically at 420 nm with the fixed concentration of ferricyanide (1 mM) and varied concentrations of a flavonoid in Potassium-phosphate buffer, pH 7.0. The rate constant for direct ferricyanide reduction was calculated from the slope of the dependence reaction rate vs flavonoid concentration and used as a measure of flavonoid non-specific reducing power.

The target in data set [6] is T1, Rabbit Reticulocyte 15-LOX-1 (Oryctolagus cuniculus, UniProt P12530).
T1 sequence (P12530 1-663): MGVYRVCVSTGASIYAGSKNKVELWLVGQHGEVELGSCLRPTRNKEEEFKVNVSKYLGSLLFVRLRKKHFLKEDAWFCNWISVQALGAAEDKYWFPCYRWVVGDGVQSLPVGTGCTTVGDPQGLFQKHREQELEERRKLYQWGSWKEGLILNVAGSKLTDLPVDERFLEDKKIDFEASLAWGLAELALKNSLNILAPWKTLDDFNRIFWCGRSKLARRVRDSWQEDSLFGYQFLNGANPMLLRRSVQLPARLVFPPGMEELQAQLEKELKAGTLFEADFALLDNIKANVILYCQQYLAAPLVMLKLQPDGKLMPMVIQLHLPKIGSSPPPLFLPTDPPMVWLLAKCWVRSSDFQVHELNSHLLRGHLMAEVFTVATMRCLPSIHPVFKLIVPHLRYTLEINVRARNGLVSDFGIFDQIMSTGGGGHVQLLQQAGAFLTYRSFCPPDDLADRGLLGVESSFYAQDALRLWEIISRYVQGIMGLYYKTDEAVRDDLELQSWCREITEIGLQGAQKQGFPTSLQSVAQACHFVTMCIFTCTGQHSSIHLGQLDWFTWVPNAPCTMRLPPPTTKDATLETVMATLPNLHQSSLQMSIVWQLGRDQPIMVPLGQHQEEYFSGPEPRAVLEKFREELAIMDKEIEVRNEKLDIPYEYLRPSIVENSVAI
The data set can be described thus: Rabbit LOX 12/15 (rabbit reticulocyte 15-LOX-1) activity. Conditions: compounds at 25 µM, Fig. 4A. The data set is classed as biochemical. How it is done:
The activity of the purified enzyme was measured in the end-point in vitro assay of arachidonic acid oxidation following the formation of fluorescent diphenyl-1-pyrenylphosphine oxide. DMSO was used as a control.

The test system of data set [7] is primary neuronal cultures treated with 5 mM HCA. The data set can be described thus: Glutathione depletion (HCA) model, MTT viability. The format is cell-based, rat. Conditions: glutathione depletion model, Fig. 5. The protocol: Primary neuronal cultures were prepared from the forebrains of Sprague-Dawley rat embryos (E17) and plated on 96 well plates at a 10^6 cells/ml density. After 24 hours, cells were rinsed with warm PBS and then placed in minimum Essential Medium (MEM; Life Technologies, Grand Island, NY) containing 5 mM HCA in the presence of a compound of interest at varied concentrations. Cells were incubated for 24 h or longer to see 90% cell death in HCA treated controls. Viability was assessed by the MTT (4,5-dimethylthiazol-2-yl)-2,5-diphenyltetrazolium bromide) assay.

On the set-up of data set [8]: method as in PMID 17112238. The conditions noted are these: cited from earlier work.
Data set [9] has as its system VEGF mRNA in immature primary cortical neurons. The data set can be described thus: VEGF mRNA induction, real-time RT-PCR. The conditions noted are these: overnight pretreatment, Fig. 4B. The data set is classed as cell-based. How it is done: For VEGF gene expression studies, total RNA was isolated from immature primary cortical neurons, pretreated overnight with the indicated concentration of a bioactive compound, using the NucleoSpin RNA II kit (Macherey-Nagel, Bethlehem, PA) according to manufacturer’s protocol. Real-time PCR was performed in triplicate as a duplex reaction using a VEGF (Mm01281449_m1) gene expression assay with a 6-carboxyfluorescein-labeled probe, and a β actin gene expression assay with a VIC-labeled probe (Applied Biosystems, Foster City, CA), so that gene amplification could be normalized to β actin. These experiments were performed using a 7500 Real-time PCR System (Applied Biosystems) using standard PCR protocol and amplification conditions.

For another data set, the target named is HIF PHD2. Conditions: read-out: HIF PHD2 apparent inhibition constant; cited from earlier work.
The subject of data set [10] is rotenone-induced hemiparkinsonian rats. More on the design: method as in PMID 23357119. Conditions: 25-75 mg/kg twice a day for 4 days; cited from earlier work.
The next data set concerns the target HIF prolyl hydroxylase. More on the design: method as in PMID 3011801. Conditions: enzyme in vitro assay; read-out: enzyme inhibition constant; cited from earlier work.

Like-named read-outs stand apart in the source and are kept apart here.

Consider `O=c1cc(-c2ccc(O)c(O)c2)oc2cc(O)cc(O)c12` [compound 18, Luteolin], for which the fold induction at 10 µM worked out at 2.5 ± 0.3 in data set [1] (Homo sapiens, SH-SY5Y); 2 ± 0.25 in data set [2]; 5 ± 0.6 in data set [3] (at 10 µM, 3 h incubation). In addition, in data set [3], the EC50 (in general, the midpoint of the concentration-response curve) was 2000 nM. Besides, the “Iron complex Diss. Const” value in [4] was 3.5 ± 0.4 µM. Moreover, the “FC red Rate Const” value in [5] came out at 130000 ± 15000 M⁻¹ s⁻¹. In [6], the LOX inhibition result is “equipotent as LOX inhibitors”. Further, the “concentration at which neuroprotection begins” value in [7] stood at 1.2 µM. Also, the EHOMO in data set [8] is recorded as -9.09 eV.
As for `O=c1c(O)c(-c2ccc(O)c(O)c2)oc2cc(O)ccc12` [compound 10, Fisetin], the fold induction at 10 µM in [1] (Homo sapiens, SH-SY5Y) stood at 1.6 ± 0.2; in data set [2], 2 ± 0.2; in [3] (at 10 µM, 3 h incubation), 23 ± 3. Moreover, the EC50 in data set [3] was 2000 nM. Also, in data set [3], the “effect of NAC on Neh2-luc reporter activation” value was “no effect”. The “Iron complex Diss. Const” value in data set [4] was 2.7 ± 0.3 µM. The “FC red Rate Const” value in [5] was determined as 301000 ± 34000 M⁻¹ s⁻¹. Further, in data set [6], the LOX inhibition entry is listed as “equipotent as LOX inhibitors”. Further, the “concentration at which neuroprotection begins” value in [7] came to 2.5 µM. For the same compound, the EHOMO in data set [8] is reported as -8.69 eV.
With `O=c1cc(-c2ccc(O)c(O)c2)oc2ccccc12` [compound 19, 3’,4’-dihydroxyflavone], the fold induction at 10 µM in data set [1] (Homo sapiens, SH-SY5Y) worked out at 2.5 ± 0.3; in data set [2] it was 2 ± 0.25; in data set [3] (at 10 µM, 3 h incubation), 15 ± 2. This compound showed a half-maximal effective concentration (EC50) in data set [3] of 2000 nM. Also, in [4], the “Iron complex Diss. Const” value is 2.5 ± 0.3 µM. The “Induction of VEGF mRNA” value in data set [9] is recorded as “mild inducers”.
As for `O=c1c(O)c(-c2ccc(O)c(O)c2)oc2cc(O)cc(O)c12` [compound 11, Quercetin], the EC50 in [1] (Homo sapiens, SH-SY5Y) is approximately 2500 nM; in data set [3], 2000 nM. Also, the fold induction at 10 µM in [1] (Homo sapiens, SH-SY5Y) was 1.5 ± 0.2; in data set [2], 2 ± 0.2; in data set [3] (at 10 µM, 3 h incubation) it was 24 ± 3. In data set [3], the “effect of NAC on Neh2-luc reporter activation” value is reported as “no effect”. The “Iron complex Diss. Const” value in [4] was 2.7 ± 0.3 µM. The “FC red Rate Const” value in data set [5] came out at 366000 ± 39000 M⁻¹ s⁻¹. Further, the EHOMO in data set [8] is reported as -8.72 eV. For the same compound, the Ki at HIF PHD2 was 10000 nM. Further, in data set [10], the “neuroprotection in rotenone model” value is “neuroprotective”.
In the case of `CCOC(=O)c1ccc(O)c(O)c1` [compound 32, Ethyl 3,4-dihydroxybenzoate, reference compound], the results for the “ODD-luc: concentration above which active” value in data set [1] and in data set [1] (listed as DHB) were “Active above 50 µM” and “above 50 µM”, respectively. Also, the “HRE-luc: concentration above which active” value in data set [2] is given as “Active above 20 µM”. The EC50 in data set [3] came to 20000 nM. In data set [3] (at 10 µM, 3 h incubation), the Neh2-luc fold activation entry is recorded as “Inactive”. In data set [4], the “Iron complex Diss. Const” value was 2.5 ± 0.3 µM. Also, the Ki on HIF prolyl hydroxylase is 5000 nM.
